This note sets out measurements from US7928126B2, “Cyanopyridine derivative and use thereof as medicine” (Mitsubishi Tanabe Pharma Corporation, priority 2005, dated 2011).

The test system of experiment [1] is human pancreatic cancer cell line PANC-1. Put plainly: Cancer cell growth inhibition (WST-8), PANC-1. The note with it: 72 h, PANC-1, 3 days, read-out: Cell proliferation suppressive activity value IC50. The experiment is classed as cell-based. The protocol:
(§1) Using RPMI1640 medium (manufactured by SIGMA) containing 10% fetal bovine serum, human prostate cancer cell line PC-3, human pancreatic cancer cell line PK-8, and human breast cancer cell line MDA-MB-453 were cultured at 37° C. under 5% CO2. Using DMEM/F-12 medium (manufactured by SIGMA) containing 10% fetal bovine serum, human colon cancer cell line HCT-116, human colon cancer cell line SW620, human ovarian cancer cell line SKOV-3, human prostate cancer cell line DU-145 and human pancreatic cancer cell line PANC-1 were cultured at 37° C. under 5% CO2. These cells were inoculated to a 96 well plate and cultured for one day. Thereto was added a compound diluted with a medium to a final concentration of 0.00064-20 μM (final DMSO concentration, 0.4%). After further cultivation for 3 days, WST-8 (0.16 mg/mL) was added to the culture medium and the culture medium was cultured for 2 hr. The absorbance at 650 nm was subtracted from the absorbance at 450 nm. The growth inhibitory activity was expressed by the decrease rate of the absorbance of compound addition group relative to the absorbance of compound non-addition group, and IC50 value was determined from the dose-reaction curve plotting the decrease rate of the absorbance, which was obtained by changing the concentration of the compound, and the concentration of the compound.

For experiment [2], the system named is human pancreatic cancer cell line PK-8. Put plainly: Cancer cell growth inhibition (WST-8), PK-8. Type of experiment: cell-based. Conditions: 72 h, PK8, 3 days, read-out: Cell proliferation suppressive activity value IC50. On the procedure:
as §1

Another experiment relates to human cancer cell lines. Briefly: Cancer cell growth inhibitory effect, whole cell line panel. Type of experiment: cell-based. The note with it: over the panel of cell lines. The protocol: as §1
For experiment [3], the system named is human breast cancer cell line MDA-MB-453. Briefly: Cancer cell growth inhibition (WST-8), MDA-MB-453. The experiment is classed as cell-based. Conditions: MDA-MB-453, 72 h, MDAMB-453, 3 days, read-out: Cell proliferation suppressive activity value IC50. The protocol: as §1
The test system of experiment [4] is human colon cancer cell line HCT-116. Briefly: Cancer cell growth inhibition (WST-8), HCT-116. Type of experiment: cell-based. Conditions: HCT-116, 72 h, HCT116, 3 days, read-out: Cell proliferation suppressive activity value IC50. The protocol:
as §1

Experiment [5] relates to human ovarian cancer cell line SKOV-3. Put plainly: Cancer cell growth inhibition (WST-8), SKOV-3. The note with it: SK-OV-3, 72 h, SKOV3, 3 days, read-out: Cell proliferation suppressive activity value IC50. Type of experiment: cell-based. On the procedure:
as §1

A further experiment deals with T1, aurora 1 kinase (Homo sapiens, UniProt Q96GD4).
T1 construct: purchased UPSTATE
Put plainly: Aurora 1 kinase assay (32P-ATP, peptide substrate LRRWSLG). Type of experiment: biochemical. Conditions: room temperature 60 min.

For experiment [6], the target named is T2, Porcine brain tubulin protein (Sus scrofa, UniProt P02550+P02554).
T2 construct: 3.3 mg/ml Porcine brain tubulin protein: Cytoskeleton; purchased Cytoskeleton; host or cells: porcine brain (tissue-derived)
Briefly: Tubulin polymerization assay (turbidity at 405 nm). The experiment is classed as biochemical. The note with it: 10 μM compound, maximum polymerization rate, 37° C.; read-out: inhibitory rate (%). The protocol: A tubulin polymerization reaction mixture (50 μL) (80 mM Pipes pH=6.9, 0.5 mM MgCl2, 1 mM EGTA, 1 mM GTP, 3.3 mg/ml Porcine brain tubulin protein: Cytoskeleton, 10 μM compound) was prepared in a 96 well flat bottom plate under ice-cooling. This was placed in a plate reader (IWAKI microplate reader, EZS-ABS) controlled to a temperature of 37° C., whereby a temperature dependent tubulin polymerization reaction was initiated. Since the turbidity of the reaction mixture increases as the tubulin polymerization proceeds, the absorbance at 405 nm was measured every other minute for 30 min to monitor the polymerization reaction. Of the 30 min measures, the three largest differences per min of turbidity (generally those immediately after start of the reaction) were taken, and the average of the three values was calculated and taken as the maximum polymerization rate. Inhibitory percent (%)=(C−T)/C×100 wherein T is the maximum polymerization rate of the reaction mixture containing the compound, and C is the maximum polymerization rate of the reaction mixture without the compound.

Another experiment has as its target T3, aurora 2 kinase (Homo sapiens, UniProt O14965).
T3 construct: The amplified gene encoding aurora 2 kinase was introduced into Escherichia coli expression vector pET32a; made in house; host or cells: Escherichia coli BL21R (Novagen), vector pET32a
T3 sequence (O14965 1-403): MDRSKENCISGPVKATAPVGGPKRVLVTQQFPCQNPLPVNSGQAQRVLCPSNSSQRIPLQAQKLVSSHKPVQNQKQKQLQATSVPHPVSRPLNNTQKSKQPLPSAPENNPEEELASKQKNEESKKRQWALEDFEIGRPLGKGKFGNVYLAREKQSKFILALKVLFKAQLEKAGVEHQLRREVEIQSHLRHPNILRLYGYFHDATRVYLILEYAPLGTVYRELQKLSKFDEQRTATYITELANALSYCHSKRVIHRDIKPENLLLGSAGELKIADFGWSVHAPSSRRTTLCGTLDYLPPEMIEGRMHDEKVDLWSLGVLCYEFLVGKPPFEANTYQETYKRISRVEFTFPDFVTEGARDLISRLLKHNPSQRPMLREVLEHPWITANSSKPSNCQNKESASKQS
Put plainly: Aurora 2 kinase assay (32P-ATP, peptide substrate LRRASLG). The experiment is classed as biochemical. Conditions: room temperature 60 min.

For experiment [7], the system named is human prostate cancer cell line DU-145. Put plainly: Cancer cell growth inhibition (WST-8), DU-145. Type of experiment: cell-based. Conditions: DU-145, 72 h, DU145, 3 days, read-out: Cell proliferation suppressive activity value IC50. The protocol: as §1
Experiment [8] relates to human colon cancer cell line SW620. Briefly: Cancer cell growth inhibition (WST-8), SW620. Type of experiment: cell-based. The note with it: SW-620, 72 h, SW620, 3 days, read-out: Cell proliferation suppressive activity value IC50. On the procedure: as §1
Experiment [9] relates to human prostate cancer cell line PC-3. Put plainly: Cancer cell growth inhibition (WST-8), PC-3. The experiment is classed as cell-based. Conditions: 72 h, PC3, 3 days, read-out: Cell proliferation suppressive activity value IC50. The protocol: as §1

The structures appear in SMILES notation. Counter-ions that a name gives are not always drawn.

T2 sequence (P02550 whole entry): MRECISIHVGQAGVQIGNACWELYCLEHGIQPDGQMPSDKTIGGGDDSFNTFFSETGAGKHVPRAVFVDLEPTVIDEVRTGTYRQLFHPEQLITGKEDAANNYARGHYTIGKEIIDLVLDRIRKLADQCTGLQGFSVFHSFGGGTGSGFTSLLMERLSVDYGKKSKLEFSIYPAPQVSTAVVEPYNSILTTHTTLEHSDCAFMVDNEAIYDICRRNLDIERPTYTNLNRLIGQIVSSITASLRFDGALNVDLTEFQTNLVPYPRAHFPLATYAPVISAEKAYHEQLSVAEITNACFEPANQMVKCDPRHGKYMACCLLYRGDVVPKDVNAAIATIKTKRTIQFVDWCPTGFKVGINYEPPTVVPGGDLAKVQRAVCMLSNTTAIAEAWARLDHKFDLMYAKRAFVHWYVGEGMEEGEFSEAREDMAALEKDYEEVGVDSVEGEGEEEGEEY
T2 sequence (P02554 whole entry): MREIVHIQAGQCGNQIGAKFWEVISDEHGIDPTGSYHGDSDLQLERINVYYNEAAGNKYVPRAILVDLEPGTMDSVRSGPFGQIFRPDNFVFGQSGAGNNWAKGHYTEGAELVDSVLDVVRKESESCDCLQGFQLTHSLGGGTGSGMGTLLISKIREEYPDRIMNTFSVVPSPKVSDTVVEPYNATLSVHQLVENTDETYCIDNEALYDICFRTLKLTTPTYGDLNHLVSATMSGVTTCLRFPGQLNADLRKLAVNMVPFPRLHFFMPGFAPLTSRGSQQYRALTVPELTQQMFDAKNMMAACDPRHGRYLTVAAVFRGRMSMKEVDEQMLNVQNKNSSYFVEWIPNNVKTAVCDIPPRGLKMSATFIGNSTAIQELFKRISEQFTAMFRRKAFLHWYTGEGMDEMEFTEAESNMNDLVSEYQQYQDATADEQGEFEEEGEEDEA
T1 sequence (Q96GD4 whole entry): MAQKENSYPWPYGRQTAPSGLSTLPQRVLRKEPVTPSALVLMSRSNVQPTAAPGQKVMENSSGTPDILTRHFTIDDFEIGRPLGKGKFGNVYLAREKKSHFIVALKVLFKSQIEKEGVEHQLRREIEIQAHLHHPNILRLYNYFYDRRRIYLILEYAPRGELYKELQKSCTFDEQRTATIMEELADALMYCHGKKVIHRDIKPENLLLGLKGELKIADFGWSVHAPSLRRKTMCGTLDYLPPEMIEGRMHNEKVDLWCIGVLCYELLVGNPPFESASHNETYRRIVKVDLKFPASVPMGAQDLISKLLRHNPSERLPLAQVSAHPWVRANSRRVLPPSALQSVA

For `Cc1cc(Nc2cc(C)c(C#N)c(NCCOc3cccnc3)n2)n[nH]1` [Example 12, 2-(2-(pyridin-3-yloxy)ethylamino)-6-(5-methyl-1H-pyrazol-3-ylamino)-4-methylnicotinonitrile dihydrochloride], the IC50 in experiment [1] turned out to be 9 nM; in [2], 4 nM; in experiment [3], 3 nM; in experiment [4] it was 2 nM; in experiment [5] it was 1 nM; in [7], 7 nM. Further, the values for the IC50 in experiment [8] and in [9] were under 6.4 nM and 7 nM, respectively. In the experiment with human cancer cell lines, the “cancer cell growth inhibitory action (in words)” value is listed as “good cancer cell growth inhibitory action over a broad range”. The Ki at aurora 1 kinase was at most 100 nM; on aurora 2 kinase, 2 nM. For the same molecule, in experiment [6], the inhibition at 10 µM was determined as 44%.
As to `Cc1cc(Nc2cc(C)c(C#N)c(NCCOc3cccc(F)c3)n2)n[nH]1` [Example 9, 2-(2-(3-fluorophenoxy)ethylamino)-6-(5-methyl-1H-pyrazol-3-ylamino)-4-methylnicotinonitrile hydrochloride], the IC50 is 1180 nM in experiment [1]; 83 nM in [2]; under 6.4 nM in [3]; 17 nM in experiment [4]; under 6.4 nM in experiment [5]; 647 nM in experiment [7]. The IC50 in experiment [8] and in experiment [9] was under 6.4 nM in each case. Also, in [6], the inhibition at 10 µM is 86%. The Ki on aurora 2 kinase was found to be 1 nM.
For the molecule `Cc1cc(Nc2cc(C)c(C#N)c(NCCOc3cccnc3C)n2)n[nH]1` [Example 22, 2-(2-(2-methylpyridin-3-yloxy)ethylamino)-6-(5-methyl-1H-pyrazol-3-ylamino)-4-methylnicotinonitrile dihydrochloride], the IC50 in experiment [1] was under 6.4 nM; in [2], 7 nM; in experiment [3], under 6.4 nM; in [4], 4 nM; in experiment [5], 4 nM; in experiment [7], 8 nM. For the same molecule, the IC50 in [8] was under 6.4 nM; in [9], 15 nM. Besides, the “cancer cell growth inhibitory action (in words)” value with human cancer cell lines was “good cancer cell growth inhibitory action over a broad range”. Also, the inhibition at 10 µM in [6] amounted to 79%. Besides, on aurora 2 kinase, the Ki was found to be 4 nM.
Consider `Cc1ccc(OCCNc2nc(Nc3cc(C)[nH]n3)cc(C)c2C#N)c(C)n1` [Example 23, 2-(2-(2,6-dimethylpyridin-3-yloxy)ethylamino)-6-(5-methyl-1H-pyrazol-3-ylamino)-4-methylnicotinonitrile dihydrochloride], for which the IC50 in experiment [1] came out at 3 nM; in experiment [2], 13 nM; in [3], 40 nM; in [4], 37 nM; in experiment [5], 8 nM; in experiment [7], 50 nM. Further, the values for the IC50 in experiment [8] and in experiment [9] were 40 nM and 21 nM, respectively. The “cancer cell growth inhibitory action (in words)” value with human cancer cell lines was “good cancer cell growth inhibitory action over a broad range”. Also, the inhibition at 10 µM in experiment [6] was 77%. Moreover, the Ki at aurora 2 kinase was found to be 10 nM.
Regarding `Cc1cc(Nc2ccc(C#N)c(NCCOc3cccnc3C)n2)n[nH]1` [Example 28, 2-(2-(2-methylpyridin-3-yloxy)ethylamino)-6-(5-methyl-1H-pyrazol-3-ylamino)nicotinonitrile dihydrochloride], the IC50 in experiment [1] is 6180 nM; in experiment [2], under 6.4 nM; in experiment [3], 4 nM; in experiment [4] it was 3 nM; in experiment [5], under 6.4 nM; in experiment [7] it was 19 nM. The IC50 in experiment [8] and in [9] was under 6.4 nM in each case. Also, the inhibition constant Ki at aurora 1 kinase is at most 100 nM; at aurora 2 kinase, 4 nM. Moreover, in [6], the inhibition at 10 µM is 69%.
Turning to `Cc1ccc(OCCNc2nc(Nc3cc(C)[nH]n3)cc(C)c2C#N)cn1` [Example 21, 2-(2-(6-methylpyridin-3-yloxy)ethylamino)-6-(5-methyl-1H-pyrazol-3-ylamino)-4-methylnicotinonitrile], the IC50 in experiment [1] stood at 14 nM; in experiment [2], 8 nM; in [3] it was 12 nM; in experiment [4], 7 nM; in experiment [5], 3 nM; in [7] it was 13 nM. Further, the values for the IC50 in [8] and in experiment [9] were 5 nM and 4 nM, respectively. In the experiment with human cancer cell lines, the “cancer cell growth inhibitory action (in words)” value is “good cancer cell growth inhibitory action over a broad range”. In addition, the Ki on aurora 1 kinase was at most 100 nM; on aurora 2 kinase it was 2 nM. The inhibition at 10 µM in experiment [6] was found to be 63%.
`Cc1cc(Nc2cc(C)c(C#N)c(NCCOc3ccccc3)n2)n[nH]1` [Example 2, 2-(2-phenoxyethylamino)-6-(5-methyl-1H-pyrazol-3-ylamino)-4-methylnicotinonitrile]: the IC50 was determined as 1290 nM in experiment [1]; 18 nM in experiment [2]; 7 nM in [3]; 11 nM in [4]; 10 nM in experiment [5]; 7 nM in experiment [7]. The IC50 in experiment [8] was 8 nM; in experiment [9] it was 17 nM. Further, the Ki on aurora 1 kinase was at most 100 nM; on aurora 2 kinase, 3 nM. Also, the inhibition at 10 µM in experiment [6] was found to be 69%.
